# Results: patent US20240252488A1 (KOREA RESEARCH INSTITUTE OF CHEMICAL TECHNOLOGY, priority 2020, published 2024)
# How the values were obtained:
# MLKL [1] = molecular target: T1, MLKL (Homo sapiens, UniProt Q8NB16); test: Measurement of binding affinity with MLKL receptor (competitive binding assay, Kd); parameters: made in house; host or cells: HEK 293 cell line (T7 phage in E. coli BL21-derived host is also described)
# T1 sequence (Q8NB16 1-471): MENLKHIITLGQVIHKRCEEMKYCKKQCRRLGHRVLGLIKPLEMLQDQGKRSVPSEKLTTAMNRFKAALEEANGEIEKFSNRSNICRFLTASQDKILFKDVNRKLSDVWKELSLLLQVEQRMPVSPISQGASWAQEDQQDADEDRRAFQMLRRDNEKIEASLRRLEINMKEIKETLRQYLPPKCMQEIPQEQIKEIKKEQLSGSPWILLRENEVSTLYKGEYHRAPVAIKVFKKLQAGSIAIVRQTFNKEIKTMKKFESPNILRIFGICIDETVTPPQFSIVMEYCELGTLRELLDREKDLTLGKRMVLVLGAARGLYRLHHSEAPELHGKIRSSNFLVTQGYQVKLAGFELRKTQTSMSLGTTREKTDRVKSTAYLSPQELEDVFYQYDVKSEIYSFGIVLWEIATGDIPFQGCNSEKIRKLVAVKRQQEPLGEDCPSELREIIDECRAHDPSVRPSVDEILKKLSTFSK
# In short: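 MLKL was produced in HEK 293 cells and tagged with DNA for detection. Liganded beads were blocked with excess biotin and washed to cut non-specific binding, then compounds (111× DMSO stocks, 0.9% DMSO in assay) competed for binding. Eluate kinase was measured by qPCR for Kd.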
# MLKL [2] = molecular target: T1, MLKL; test: MLKL degradation assay in HepG2 cell line (western blot); type: cell-based; parameters: endogenous in cells; host or cells: HepG2 or HaCaT; details: cell line not given; for Degradation assay (Degradation %) 1 μM: compound 1 μM; for Degradation assay (Degradation %) 10 μM: compound 10 μM
# In short: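 Chemiluminescent western blot signal reports remaining MLKL protein in HepG2 cells after 20-24 h treatment with compound at a final 1 or 10 μM. Equal protein (10-15 μg, BCA) is loaded per lane.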
# FADD−/− Jurkat cells = test: Necroptosis inhibition assay, TNF-α-induced necroptosis (CellTiter-Glo 2.0); type: cell-based, human; details: TNF-α 15 ng/mL; for Necroptosis inhibition assay (Rescue %) 1 μM: compound 1 μM; for Necroptosis inhibition assay (Rescue %) 10 μM: compound 10 μM
# In short: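 Compound is added to cells at final concentrations of 0.1, 1 and 10 μM and left 30 minutes at room temperature. Necroptosis is induced with 15 ng/mL TNF-α, culture continues 20 to 24 hours at 37° C, and ATP-based luminescence reports viability.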
SMILES,Kd (MLKL [1]),Degradation assay (Degradation %) 1 μM (MLKL [2]),Degradation assay (Degradation %) 10 μM (MLKL [2]),Necroptosis inhibition assay (Rescue %) 1 μM (FADD−/− Jurkat cells; FADD−/− Jurkat cells),Necroptosis inhibition assay (Rescue %) 10 μM (FADD−/− Jurkat cells; FADD−/− Jurkat cells),Necroptosis inhibition assay (Rescue %) 1 μM (FADD−/− Jurkat cells),Necroptosis inhibition assay (Rescue %) 10 μM (FADD−/− Jurkat cells)
"Nc1ncc(-c2cnn(C3CCN(C(=O)CCC4CCN(C(=O)C5CN(c6ccc7nnn(C8CCC(=O)NC8=O)c(=O)c7c6)C5)CC4)CC3)c2)nc1C(=O)O[C@@H](C(=O)Nc1ccc(F)cc1)c1ccccc1 (stereo partly drawn) [TDH-438, (R)-2-((4-fluorophenyl)amino)-2-oxo-1-phenylethyl 3-amino-6-(1-(1-(3-(1-(1-(3-(2,6-dioxopiperidin-3-yl)-4-oxo-3,4-dihydrobenzo[d][1,2,3]triazin-6-yl)azetidine-3-carbonyl)piperidin-4-yl)propanoyl)piperidin-4-yl)-1H-pyrazol-4-yl)pyrazine-2-carboxylate]",4.5 nM,86.72%,78.91%,26.37%,13.48%,–,–
"Nc1ncc(-c2cnn(C3CCN(CCCCCCCCCCNC(=O)C4CN(c5ccc6nnn(C7CCC(=O)NC7=O)c(=O)c6c5)C4)CC3)c2)nc1C(=O)O[C@@H](C(=O)Nc1ccc(F)cc1)c1ccccc1 (stereo partly drawn) [TDH-178, (R)-2-((4-fluorophenyl)amino)-2-oxo-1-phenylethyl 3-amino-6-(1-(1-(10-(1-(3-(2,6-dioxopiperidin-3-yl)-4-oxo-3,4-dihydrobenzo[d][1,2,3]triazin-6-yl)azetidine-3-carboxamido)decyl)piperidin-4-yl)-1H-pyrazol-4-yl)pyrazine-2-carboxylate]",73 nM,72.12%,84.5%,–,–,24.45%,28.25%
"Nc1ncc(-c2ccc(N3CCN(CCOCCOCCNC(=O)COc4cccc5c4C(=O)N(C4CCC(=O)NC4=O)C5=O)CC3)nc2)nc1C(=O)OC(C(=O)Nc1ccc(F)cc1)c1ccccc1 (stereo not drawn) [TDH-261, 2-((4-fluorophenyl)amino)-2-oxo-1-phenylethyl 3-amino-6-(6-(4-(2-(2-(2-(2-((2-(2,6-dioxopiperidin-3-yl)-1,3-dioxoisoindolin-4-yl)oxy)acetamido)ethoxy)ethoxy)ethyl)piperazin-1-yl)pyridin-3-yl)pyrazine-2-carboxylate]",43 nM,34.54%,42.25%,–,–,15.5%,14.28%
"Nc1ncc(-c2cnn(C3CCN(C(=O)CCC4CCN(C(=O)C5CCN(c6cccc7c6C(=O)N(C6CCC(=O)NC6=O)C7=O)CC5)CC4)CC3)c2)nc1C(=O)O[C@@H](C(=O)Nc1ccc(F)cc1)c1ccccc1 (stereo partly drawn) [TDH-417, (R)-2-((4-fluorophenyl)amino)-2-oxo-1-phenylethyl 3-amino-6-(1-(1-(3-(1-(1-(2-(2,6-dioxopiperidin-3-yl)-1,3-dioxoisoindolin-4-yl)piperidine-4-carbonyl)piperidin-4-yl)propanoyl)piperidin-4-yl)-1H-pyrazol-4-yl)pyrazine-2-carboxylate]",3.5 nM,87.84%,63.85%,24.41%,14.37%,–,–
"Nc1ncc(-c2cnn(C3CCN(C(=O)C4CCN(C(=O)CC5CCN(c6ccc7c(c6)C(=O)N(C6CCC(=O)NC6=O)C7=O)CC5)CC4)CC3)c2)nc1C(=O)O[C@@H](C(=O)Nc1ccc(F)cc1)c1ccccc1 (stereo partly drawn) [TDH-375, (R)-2-((4-fluorophenyl)amino)-2-oxo-1-phenylethyl 3-amino-6-(1-(1-(1-(2-(1-(2-(2,6-dioxopiperidin-3-yl)-1,3-dioxoisoindolin-5-yl)piperidin-4-yl)acetyl)piperidine-4-carbonyl)piperidin-4-yl)-1H-pyrazol-4-yl)pyrazine-2-carboxylate]",2.3 nM,93.86%,86.43%,–,–,30.67%,20.44%

# Continued, in another order:
Kd (MLKL [1]),Degradation assay (Degradation %) 1 μM (MLKL [2]),Degradation assay (Degradation %) 10 μM (MLKL [2]),SMILES,Necroptosis inhibition assay (Rescue %) 1 μM (FADD−/− Jurkat cells; FADD−/− Jurkat cells),Necroptosis inhibition assay (Rescue %) 10 μM (FADD−/− Jurkat cells; FADD−/− Jurkat cells),Necroptosis inhibition assay (Rescue %) 1 μM (FADD−/− Jurkat cells),Necroptosis inhibition assay (Rescue %) 10 μM (FADD−/− Jurkat cells)
48 nM,14.79%,62.43%,"Nc1ncc(-c2cnn(C3CCN(C(=O)COCCOCCNc4cccc5c4C(=O)N(C4CCC(=O)NC4=O)C5=O)CC3)c2)nc1C(=O)O[C@@H](C(=O)Nc1ccc(F)cc1)c1ccccc1 (stereo partly drawn) [TDH-104, (R)-2-((4-fluorophenyl)amino)-2-oxo-1-phenylethyl 3-amino-6-(1-(1-(2-(2-(2-((2-(2,6-dioxopiperidin-3-yl)-1,3-dioxoisoindolin-4-yl)amino)ethoxy)ethoxy)acetyl)piperidin-4-yl)-1H-pyrazol-4-yl)pyrazine-2-carboxylate]",–,–,25.6%,22.88%
6.9 nM,59.87%,40.64%,"Cc1ncsc1-c1ccc(CNC(=O)[C@H]2C[C@H](O)CN2C(=O)[C@@H](NC(=O)CN2CCC(CCN3CCC(n4cc(-c5cnc(N)c(C(=O)OC(C(=O)Nc6ccc(F)cc6)c6ccccc6)n5)cn4)CC3)CC2)C(C)(C)C)cc1 (stereo partly drawn) [TDH-312, 2-((4-fluorophenyl)amino)-2-oxo-1-phenylethyl 3-amino-6-(1-(1-(2-(1-(2-(((S)-1-((2R,4S)-4-hydroxy-2-((4-(4-methylthiazol-5-yl)benzyl)carbamoyl)pyrrolidin-1-yl)-3,3-dimethyl-1-oxobutan-2-yl)amino)-2-oxoethyl)piperidin-4-yl)ethyl)piperidin-4-yl)-1H-pyrazol-4-yl)pyrazine-2-carboxylate]",–,–,75.61%,–
2.1 nM,74.16%,46.20%,"Nc1ncc(-c2cnn(C3CCN(C(=O)CCC4CCN(C(=O)CNc5cccc6nnn(C7CCC(=O)NC7=O)c(=O)c56)CC4)CC3)c2)nc1C(=O)O[C@@H](C(=O)Nc1ccc(F)cc1)c1ccccc1 (stereo partly drawn) [TDH-433, (R)-2-((4-fluorophenyl)amino)-2-oxo-1-phenylethyl 3-amino-6-(1-(1-(3-(1-((3-(2,6-dioxopiperidin-3-yl)-4-oxo-3,4-dihydrobenzo[d][1,2,3]triazin-5-yl)glycyl)piperidin-4-yl)propanoyl)piperidin-4-yl)-1H-pyrazol-4-yl)pyrazine-2-carboxylate]",16.00%,11.01%,–,–
1.7 nM,89.91%,90.14%,"Nc1ncc(-c2cnn(C3CCN(C(=O)CCC4CCN(C(=O)COc5cccc6c5C(=O)N(C5CCC(=O)NC5=O)C6=O)CC4)CC3)c2)nc1C(=O)O[C@@H](C(=O)Nc1ccc(F)cc1)c1ccccc1 (stereo partly drawn) [TDH-415, (R)-2-((4-fluorophenyl)amino)-2-oxo-1-phenylethyl 3-amino-6-(1-(1-(3-(1-(2-((2-(2,6-dioxopiperidin-3-yl)-1,3-dioxoisoindolin-4-yl)oxy)acetyl)piperidin-4-yl)propanoyl)piperidin-4-yl)-1H-pyrazol-4-yl)pyrazine-2-carboxylate]",41.74%,40.81%,–,–
7.1 nM,–,24.52%,"Nc1ncc(-c2cnn(C3CCN(CCOCCNC(=O)COc4ccc5c(c4)C(=O)N(C4CCC(=O)NC4=O)C5=O)CC3)c2)nc1C(=O)O[C@@H](C(=O)Nc1ccc(F)cc1)c1ccccc1 (stereo partly drawn) [TDH-168, (R)-2-((4-fluorophenyl)amino)-2-oxo-1-phenylethyl 3-amino-6-(1-(1-(2-(2-(2-((2-(2,6-dioxopiperidin-3-yl)-1,3-dioxoisoindolin-5-yl)oxy)acetamido)ethoxy)ethyl)piperidin-4-yl)-1H-pyrazol-4-yl)pyrazine-2-carboxylate]",–,–,31.24%,40.55%
